Experimental data taken from patent US11707516B2, “Method for producing artificial recombinant rotavirus” (Osaka University, priority 2016, dated 2023).

System: luciferase-expressing artificial recombinant rotavirus
Assay: Screening test for anti-rotavirus drug using luciferase-expressing rotavirus in CV-1 cells (luminescence)
Type: cell-based, simian rotavirus
Description: CV-1 cells were seeded on 96-well culture plates at 1×10^5 cells/well on the previous day of infection. The CV-1 cells were infected with wild-type SA11 or the luciferase-expressing artificial recombinant rotavirus produced in Example 4 at an MOI of 0.001. After viral adsorption at 37° C. for 1 hour, the culture supernatant was removed, and DMEM (without FBS and with 0.5 μg/mL trypsin) containing 0, 1, 5, 10, 50, 100 or 200 μM ribavirin (Sigma-Aldrich) was added. Incubation was performed at 37° C. for 14 hours. After that, the substrate stock solution of Nano-Glo Luciferase Assay System (trade name, Promega) was added to the culture medium, and luminescence was detected with an in vivo imaging system (IVIS Spectrum, manufactured by Xenogen).

NC(=O)c1ncn([C@@H]2O[C@H](CO)[C@@H](O)[C@H]2O)n1 [ribavirin]
luminescence intensity (viral proliferation inhibitory effect) (MOI of 0.001, 0, 1, 5, 10, 50, 100 or 200 μM ribavirin, 14 hours): decreased in a ribavirin concentration-dependent manner | ribavirin concentration at which no luminescence was observed (MOI of 0.001, 14 hours): ≥ 50 µM
